Test results reported in US20200157135A1, “SIDE-CHAIN MODIFIED ERGOSTEROL AND STIGMASTEROL DERIVATIVES AS LIVER X RECEPTOR MODULATORS” (Ospedale San Raffaele srl, priority 2017, published 2020).
Where two headings read alike, the source gives them in different places.

How the values were obtained:
hLXRα = molecular target: T1, hLXRα (Homo sapiens, UniProt Q13133); assay: luciferase assay with GAL-4 chimeric hLXRα receptor in human embryonic kidney 293 cells; format: cell-based; details: for Emax: HEK293, 24 h, read-out: LXRα Efficacy (%) ± SD; for EC50: GAL4-hLXRα luciferase, HEK293, dose-response 32-1 μM, mean of three-five independent experiments, read-out: LXRα EC50 (μM) ± SD
T1 sequence (Q13133 209-447 limits assumed): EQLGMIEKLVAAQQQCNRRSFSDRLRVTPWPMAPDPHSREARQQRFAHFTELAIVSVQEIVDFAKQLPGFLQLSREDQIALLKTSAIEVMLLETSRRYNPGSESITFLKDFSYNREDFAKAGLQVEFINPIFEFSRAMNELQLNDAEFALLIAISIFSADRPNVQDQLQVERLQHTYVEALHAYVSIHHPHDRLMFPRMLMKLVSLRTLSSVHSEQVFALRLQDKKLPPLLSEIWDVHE
Method: (§1) All the synthesized compounds were first tested for their ability to activate LXRs by using luciferase assays with GAL-4 chimeric receptors. These were performed by co-transfecting plasmids encoding hLXRα- and β-binding domains fused to GAL-4, with the respective responsive element conjugated with the luciferase reporter gene into the human embryonic kidney 293 cells.
(§2) Cell Culture and Co-transfection Assays. Human embryonic Kidney 293 cells (American Type Culture Collection) were cultured in Dulbecco's Modified Eagle's medium containing 10% of fetal bovine serum at 37° C. in humidified atmosphere of 5% CO2. HEK293 cells (4×10^4 cells per well) were transiently transfected in 48 well plate with the reporter plasmids pMH100X4-TK-luc (100 ng/well), Renilla (22 ng/well) together with 100 ng/well of pCMX-Gal4-RXR, pCMX-Gal4-PPAR-γ, pCMX-Gal4-PXR, pFA-CMV-FXR pCMX-Gal4-LXR-α or pCMX-Gal4-LXR-β plasmids using X-tremeGENE 9 DNA Transfection Reagent (Roche). Six hours after transfection, the cells were treated with the appropriate compound for 24 hours. Luciferase activities were analyzed by luciferase Dual Reporter Assay Systems (Promega) according to the manufacturer's protocol. GAL4-LXRs, GAL4-PPAR-γ, GAL4-RXR and TK-MHC100-luc plasmids were described in Villablanca et al.49 GAL4-PXR was a kind gift of Dr. Enrique Sainz (The Scripps Research Institute, La Jolla, USA). GAL4-FXR was a kind gift of Dr. Daniel Merk (Goethe-University Frankfurt am Main). The results obtained by luciferase assays and reported in Table 1 are from three to five independent experiments.
(§3) Statistical analysis. Data are expressed as mean±SEM and were analyzed for significance by ANOVA with Dunnet's multiple comparison tests. The analysis was performed with Prism software. Data in Table 1 are expressed as EC50±SD. In particular, the standard deviations were obtained by calculating the mean of the EC50 of each experiment (three to five independent experiments). The efficacy (%) of the compounds was calculated as the percentage of the compound effect, in terms of LXRα or β activation, versus 8 μM of 22R—HC±SD. The analyses were performed with Prism software.

hLXRβ = molecular target: T2, hLXRβ (Homo sapiens, UniProt P55055); assay: luciferase assay with GAL-4 chimeric hLXRβ receptor in human embryonic kidney 293 cells; format: cell-based; details: for Emax: HEK293, 24 h; for EC50: GAL4-hLXRβ luciferase, HEK293, dose-response 32-1 μM, mean of three-five independent experiments, read-out: LXRβ EC50 (μM) ± SD
T2 sequence (P55055 222-460 limits assumed): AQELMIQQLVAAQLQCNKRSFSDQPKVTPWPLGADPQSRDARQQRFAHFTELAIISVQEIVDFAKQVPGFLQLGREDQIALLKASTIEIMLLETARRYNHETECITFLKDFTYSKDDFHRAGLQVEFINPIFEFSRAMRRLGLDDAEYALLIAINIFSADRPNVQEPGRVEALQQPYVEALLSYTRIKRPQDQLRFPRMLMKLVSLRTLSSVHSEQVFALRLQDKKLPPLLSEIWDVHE
Method: as §1, §2, §3

hPXR = assay: luciferase assay GAL4-hPXR in human embryonic kidney 293 cells; format: cell-based; details: compounds at 10 μM
Method: Human embryonic kidney 293 cells were co-transfected with GAL4-hRXR (A), GAL4-hPPARγ (B), GAL4-hPXR (C) and GAL4-hFXR (D) expression plasmids together with GAL4 responsive element pMHC100X4-TK-luc and Renilla plasmids. Cells were incubated with vehicle (DMSO), PFMs at the concentration of 10 μM, and the nuclear receptor specific ligands 9cis retinoic acid (100 nM) (A), Rosiglitazone (RSG 100 nM) (B), T0901317 (100 nM) (C) and GW4064 (100 nM) (D) for six hours. The values represent mean±S.D. RLA, relative luciferase activity.
The selectivity of our compounds within the nuclear receptor superfamily was also evaluated by luciferase assays using GAL4-RXR, -PPARγ, -PXR and -FXR plasmids.
as §2

MCP-1/CCL2 = assay: qPCR of CCL2 expression in differentiated U937 cells treated with LPS; format: cell-based, human; details: differentiated U937, 6 hours, 10 μM in combination with LPS (100 ng/ml)
Method: (§4) U937 cells differentiated with PMA for 72 hours were treated with LPS (100 ng/ml) in combination with T0901317 (10 μM) or with the title compounds (10 μM). […] (n=3/group). *p<0.05, **p<0.01, ***p<0.001.
(§5) Quantitative Real-Time-PCR. U937 cell line was differentiated in foam macrophages with phorbol 12-myristate 13-acetate (PMA) 10 ng/ml (Sigma) for 72 hours at 37° C. in […] at the concentration of 3×10^6 cells in 10 ml RPMI 10% FBS. At day 3 nuclear receptor ligands were added for 6 hours. HepG2 cells were treated with the ligands as described by Quinet et al.22 Total RNA was purified by TRIZOL (Invitrogen, Carlsbad, Calif., USA). Reverse transcription was performed incubating 2 μg of total RNA 1 hour at 42° C. with MLV-reverse transcriptase (Promega). Quantitative PCR was performed using Sybr Green Master Mix (Applied Biosystems) and real-time PCR (Viia 7 Real Time PCR System, Applied Biosystems). All PCR reactions were done in triplicate. The comparative Ct method was used to quantify transcripts that were normalized for human GAPDH. the following primer pairs were used: […]

SREBP1c [1] = assay: qPCR of SREBP1c expression in HepG2 cells; format: cell-based, human; details: 10 μM
Method: HepG2 cells were treated with T0901317 (10 μM), 22R—HC (3) (10 μM) or with the tested compound (10 μM). […] (n=3/group). *p<0.05, **p<0.01, ***p<0.001.
LXR agonists induce the expression of target genes, which are involved in cholesterol homeostasis, particularly in the reverse cholesterol transport pathway.43 Indeed, LXR agonists induce the expression of ABCA1 both in macrophages and in many tissues of the periphery such as the intestine.44 Moreover, ABCA1 regulates cholesterol efflux to APOAI acceptors.45 In the liver, LXR activation promotes the biosynthesis of fatty acids, a process also termed as de novo lipogenesis by inducing the expression of the master regulator of hepatic lipogenesis sterol-regulatory element-binding protein 1C (SREBP-1c), as well as several downstream genes in the SREBP-1c pathway, including steroyl CoA desaturase 1 (SCD1) and fatty acid synthase (FASN).43 Therefore, it was investigated, by quantitative PCR (qPCR), the expression of ABCA1, SREBP1c, FASN, and SCD1, by using RNA from monocytic U937 cells (FIG. 3) and from hepatic HepG2 cells (FIG. 4) stimulated with our compounds, the non-steroidal agonist T0901317 or the endogenous ligand 22R—HC (3) as positive controls. […] 43,22 was evaluated. […]
Quantitative Real-Time-PCR. […] The comparative Ct method was used to quantify transcripts that were normalized for human GAPDH. the following primer pairs were used: […]

ABCA1 = assay: qPCR of ABCA1 expression in PMA-differentiated U937 cells; format: cell-based, human; details: U937 differentiated with PMA 72 h; 10 μM, 6 hours
Method: (§6) U937 cells differentiated with PMA for 72 hours were treated with T0901317 (10 μM), 22R—HC (3) or with the tested compound (10 μM). […] (n=3/group). *p<0.05, **p<0.01, ***p<0.001.
(§7) LXR agonists induce the expression of target genes, which are involved in cholesterol homeostasis, particularly in the reverse cholesterol transport pathway.43 Indeed, LXR agonists induce the expression of ABCA1 both in macrophages and in many tissues of the periphery such as the intestine.44 Moreover, ABCA1 regulates cholesterol efflux to APOAI acceptors.45 In the liver, LXR activation promotes the biosynthesis of fatty acids, a process also termed as de novo lipogenesis by inducing the expression of the master regulator of hepatic lipogenesis sterol-regulatory element-binding protein 1C (SREBP-1c), as well as several downstream genes in the SREBP-1c pathway, including steroyl CoA desaturase 1 (SCD1) and fatty acid synthase (FASN).43 Therefore, it was investigated, by quantitative PCR (qPCR), the expression of ABCA1, SREBP1c, FASN, and SCD1, by using RNA from monocytic U937 cells (FIG. 3) and from hepatic HepG2 cells (FIG. 4) stimulated with our compounds, the non-steroidal agonist T0901317 or the endogenous ligand 22R—HC (3) as positive controls. […] Then, the induction of genes involved in the lipogenesis using the hepatic cell line HepG2. 43,22 was evaluated. […] Over the time, indeed, substantial efforts have been dedicated to the identification of LXR ligands able to turning on ABC transporter genes, without affecting lipogenic genes levels. This task is still one of the major challenge to the discovery of a clinically useful LXR modulator for atherosclerosis.
as §5

SCD1 = assay: qPCR of SCD1 expression in PMA-differentiated U937 cells; format: cell-based, human; details: U937 differentiated with PMA 72 h; 10 μM, 6 hours
Method: as §6, §7, §5

TNFα = assay: qPCR of TNFα expression in differentiated U937 cells treated with LPS; format: cell-based, human; details: differentiated U937, 6 hours, 10 μM in combination with LPS (100 ng/ml)
Method: as §4, §5

SREBP1c [2] = assay: qPCR of SREBP1c expression in PMA-differentiated U937 cells; format: cell-based, human; details: U937 differentiated with PMA 72 h; 10 μM, 6 hours
Method: as §6, §7, §5

[3] = read-out: LXRβ Efficacy (%) ± SD, % of compound effect versus 8 μM of 22R-HC
[4] = % of compound effect versus 8 μM of 22R-HC
[5] = % of compound effect versus 8 μM of 22R-HC, read-out: LXRβ Efficacy (%) ± SD

SMILES | Emax (hLXRα) [%] | Emax (hLXRβ; [3]) [%] | EC50 (hLXRα) [µM] | EC50 (hLXRβ) [µM] | Emax (hLXRα; [4]) [%] | Emax (hLXRβ; [5]) [%] | inhibition of CCL2 expression (MCP-1/CCL2) | also measured
C=C[C@@](O)(CC[C@@H](C)C1CCC2C3CC=C4C[C@@H](O)CC[C@]4(C)C3CC[C@@]21C)C(C)C (stereo partly drawn) [Compound 12, 24(S)-saringosterol, reference compound] | 43.4 ± 17.6 | 61 ± 17.4 |  |  |  |  |  | beta/alfa efficacy ratio (hLXRβ; LXRβ efficacy over LXRα efficacy): 1.4
CC[C@@H](C(C)C)[C@@H]1O[C@H]1[C@@H](C)[C@H]1CC[C@H]2[C@@H]3CC=C4C[C@@H](O)CC[C@]4(C)[C@H]3CC[C@]12C [Compound 14, (22S,23S)-22,23-Epoxystigmast-5-ene-3β-ol] | 56.8 ± 4.6 | 36.3 ± 3 | 16.4 ± 0.62 | 12.7 ± 2.7 |  |  |  | 
CC(C)[C@@H](C)[C@H]1O[C@@H]1[C@@H](C)[C@H]1CC[C@H]2C3=CC=C4C[C@@H](O)CC[C@]4(C)[C@H]3CC[C@]12C [Compound 15, (22R,23R)-22,23-Epoxyergosta-5,7-diene-3β-ol] |  |  | 4.11 ± 0.31 | 7.2 ± 0.94 | 93.2 ± 5.8 | 30.4 ± 10.6 |  | PXR activation (hPXR): slight activation of PXR
CC(C)[C@@H](C)[C@@H]1O[C@H]1[C@@H](C)[C@H]1CC[C@H]2C3=CC=C4C[C@@H](O)CC[C@]4(C)[C@H]3CC[C@]12C [Compound 16, (22S,23S)-22,23-Epoxyergosta-5,7-diene-3β-ol] |  |  | 1.5 ± 0.12 | 1.96 ± 0.05 | 51.7 ± 3.8 | 48.5 ± 13 | same grade of potency of the positive control T0901317 | LXR isoform selectivity profile (hLXRα; LXRα versus LXRβ, GAL4 luciferase assays): non-selective and poorly preferential LXRα agonists; SREBP-1c up-regulation (SREBP1c [1]): significant up-regulation of SREBP-1c
CC[C@@H](C(C)C)[C@H](O)C[C@@H](C)[C@H]1CC[C@H]2[C@@H]3CC=C4C[C@@H](O)CC[C@]4(C)[C@H]3CC[C@]12C [Compound 19, (23R)-3β-Stigmast-5-ene-3,23-diol] |  |  | 3.2 ± 0.54 | 2.7 ± 1.16 |  |  | same grade of potency of the positive control T0901317 | ABCA1 expression (ABCA1): strong induction of ABCA1 expression; SCD1 expression (SCD1): poor activators of SREBP1c and SCD1; inhibition of TNFα expression (TNFα): the most active; SREBP-1c up-regulation (SREBP1c [2]): poor activators of SREBP1c and SCD1
